Assay results reported in US20090105126A1 (priority 2007, published 2009).
Several values for one entry are separate records, joined by “and”; a condition that tells them apart may be missing. Equal values may be shown once. Read-outs that look alike come from different tables or passages of the source.

Key:
[1] = Fluorescence anisotropy of entrapped calcein; format: physicochemical; conditions: calcein probe, excitation 495 nm, emission 520 nm; higher value = more viscous
Procedure: DPPC was added by ethanol injection to make 5 mg/ml liposome at 50° C. […] Fluorescence anisotropy was measured at an excitation wavelength of 495 nm and emission wavelength of 520 nm. Fluorescence anisotropy is an order parameter, which ranged from 0 to 0.4 in aqueous solution. The higher value indicates more viscous solution.

[2] = Concentration of vancomycin in the lungs of mice after inhalation therapy (Example 8); conditions: for [VANCOMYCIN] in Lung, animals n/N (second line of cell): Inhalation, BID x 3; for Vancomycin (μg/g), mean / Vancomycin (μg/lung), mean / Vancomycin (μg/g), individual mice / Vancomycin (μg/lung), individual mice: 4 days after inhalation therapy; for Vancomycin (μg/g), mean / Vancomycin (μg/lung), mean: group mean; for Vancomycin (μg/g), individual mice / Vancomycin (μg/lung), individual mice: listed as Soluble Vancomycin
Procedure: The instillation was performed through the nostrils route using micropipette with tips (Gilson, calibrated with Femt Scientific). The mouse is held by its ears and 20 μl of bacteria are gradually (2 μl per breath) released into the nostrils (10 μl in each nostril) with the help of a micro-pipette. The mice were observed every 10 min until they fully recovered from the anesthesia.
There were 5 groups and each group had 12 mice. […] Mice in group 5 received sterile normal saline (0.9% NaCl) by inhalation.

[3] = tested on: S. pneumoniae (ATCC 6303)
Procedure: Thirty six (36) female mice (Swiss Webster, Charles River) were received in the vivarium and acclimated for at least 7 days prior to initiation of the protocol. […] Mice were dosed on days 1, 2 and 3. […] Mice in Group 3 received 20 min inhalation with sterile 0.9% NaCl for inhalation (Cardinal, Lot #WBA194). Euthanization and determination of bacterial colonies in blood and lungs were performed as described in Example 8.

[4] = tested on: S. pneumoniae (ATCC 6303); conditions: for Log CFU/Lung, animals n/N (second line of cell) / Log CFU/mL of Blood, animals n/N (second line of cell) / Log CFU/mL of Blood: Inhalation, BID x 3; for Log CFU/mL of Blood: animals surviving until Day 7; for mice in which S. pneumoniae in the lungs was not eradicated: mice surviving to day 7
Procedure: Sixty (60) Thirty six (36) female mice (Swiss Webster, Charles River) were received in the vivarium and acclimated for at least 7 days prior to initiation of the protocol. All mice were instilled via nasal insufflation with S. pneumoniae (ATCC, 6303, 4.1×10^4 CFU/ mice) after being anesthetized with Ketamine/Xylazine solution (80 mg/kg and 10 mg/kg). The instillation was performed through the nostrils route using micropipette with tips (Gilson, calibrated with Femt Scientific). The mouse is held by its ears and 20 μl of bacteria are gradually (2 μl per breath) released into the nostrils (10 μl in each nostril) with the help of a micro-pipette. The mice were observed every 10 min until they fully recovered from the anesthesia.
Mice were dosed on days 1, 2 and 3. There were 5 groups and each group had 12 mice. […] Mice in group 5 received sterile normal saline (0.9% NaCl) by inhalation.
Determination of bacterial colonies in the lung and blood of mice. Mice that were euthanized prior to day 7 and mice that survived to day 7 were euthanized by CO2 asphyxiation. The blood was collected by cardiac puncture after euthanization. A 1/10 dilution of blood was made in BHI broth immediately. The lungs were removed aseptically, weighed and placed into 1 ml of BHI broth in a sterile 5 ml Polypropylene round-bottom tube.
Lungs were homogenized sterilely with a Polytron^R (Brinkmann, Rexdale, Ontario, Canada) using the maximum speed in the 5 ml Polypropylene round-bottom tube. The tissues were homogenized until a smooth. Ten-fold dilutions of the lung homogenates were made in BHI broth supplemented with 10 ug/ml of Colistin(C) 5 ug/ml of Oxolinic (O). One hundred (100) ul of each dilution of lung homogenates were plated out onto CBO agar plates and spread. The plates were incubated for 24 hours at 37° C. then colonies were counted.

[5] = Intraperitoneal, BID x 3, 12 mg/kg/day
[6] = Intraperitoneal, BID x 3, 12 mg/kg/day, animals surviving until Day 7
[7] = intraperitoneal injection 6 mg/kg BID

Structure (SMILES): CN[C@H](CC(C)C)C(=O)N[C@H]1C(=O)N[C@@H](CC(N)=O)C(=O)N[C@H]2C(=O)N[C@H]3C(=O)N[C@H](C(=O)N[C@H](C(=O)O)c4cc(O)cc(O)c4-c4cc3ccc4O)[C@H](O)c3ccc(c(Cl)c3)Oc3cc2cc(c3O[C@@H]2O[C@H](CO)[C@@H](O)[C@H](O)[C@H]2O[C@H]2C[C@](C)(N)[C@H](O)[C@H](C)O2)Oc2ccc(cc2Cl)[C@H]1O [Vancomycin solution (15 mg/ml), vancomycin]
- Fluorescence anisotropy [1]: 0.014

Structure (SMILES): CN[C@H](CC(C)C)C(=O)N[C@H]1C(=O)N[C@@H](CC(N)=O)C(=O)N[C@H]2C(=O)N[C@H]3C(=O)N[C@H](C(=O)N[C@H](C(=O)O)c4cc(O)cc(O)c4-c4cc3ccc4O)[C@H](O)c3ccc(c(Cl)c3)Oc3cc2cc(c3O[C@@H]2O[C@H](CO)[C@@H](O)[C@H](O)[C@H]2O[C@H]2C[C@](C)(N)[C@H](O)[C@H](C)O2)Oc2ccc(cc2Cl)[C@H]1O [Vancomycin solution (300 mg/ml), vancomycin]
- Fluorescence anisotropy [1]: 0.17

Structure (SMILES): CN[C@H](CC(C)C)C(=O)N[C@H]1C(=O)N[C@@H](CC(N)=O)C(=O)N[C@H]2C(=O)N[C@H]3C(=O)N[C@H](C(=O)N[C@H](C(=O)O)c4cc(O)cc(O)c4-c4cc3ccc4O)[C@H](O)c3ccc(c(Cl)c3)Oc3cc2cc(c3O[C@@H]2O[C@H](CO)[C@@H](O)[C@H](O)[C@H]2O[C@H]2C[C@](C)(N)[C@H](O)[C@H](C)O2)Oc2ccc(cc2Cl)[C@H]1O [Vancomycin, vancomycin]
- vancomycin in the lungs (IP 12 mg/kg/day, day seven, listed as free vancomycin, 12 mg/kg/day): no vancomycin deposition in lung was detected
- vancomycin in the lungs (IP injections, 4 days after the end of therapy): No detectable concentrations
- initial daily lung dose (IP, based on 4% of the delivered dose in the lungs 30 min post IP injections): 15 ug of vancomycin/lung
- [VANCOMYCIN] in Lung, animals n/N (second line of cell) [5]: 0/12
- [VANCOMYCIN] in Lung [6]: 0 mg/g
- vancomycin after IP injection (Six (6) hours after IP injection, Swiss Webster mice): no detectable vancomycin was observed
- [VANCOMYCIN] in Lung, animals n/N (second line of cell) ([2]; 3.8 mg/kg/day): 12/12
- [VANCOMYCIN] in Lung, animals n/N (second line of cell) ([2]; 6.0 mg/kg/day): 12/12
- Vancomycin (μg/g), mean ([2]; inhaled 3.8 mg/kg): 34 µg/g
- Vancomycin (μg/lung), mean ([2]; inhaled 3.8 mg/kg): 5 μg/lung
- Vancomycin (μg/g), individual mice ([2]; inhaled 3.8 mg/kg): 14.0 µg/g and 37.0 µg/g
- Vancomycin (μg/lung), individual mice ([2]; inhaled 3.8 mg/kg): 5.8 μg/lung and 5.2 μg/lung (2×) and 6.8 μg/lung and 3.4 μg/lung and 4.7 μg/lung (2×) and 5.9 μg/lung and 2.0 μg/lung and 3.6 μg/lung and 8.1 μg/lung and 6.1 μg/lung
- Vancomycin (μg/g), mean ([2]; inhaled 6 mg/kg): 61 µg/g
- Vancomycin (μg/lung), mean ([2]; inhaled 6 mg/kg): 10 μg/lung
- Vancomycin (μg/g), individual mice ([2]; inhaled 6 mg/kg): 42.0 µg/g and 59.0 µg/g and 66.0 µg/g
- Vancomycin (μg/lung), individual mice ([2]; inhaled 6 mg/kg): 7.6 μg/lung and 8.8 μg/lung and 6.4 μg/lung and 9.7 μg/lung and 9.0 μg/lung and 9.3 μg/lung and 8.3 μg/lung and 14.0 μg/lung and 9.8 μg/lung
- Log CFU/Lung, animals n/N (second line of cell) [3, 5]: 3/12
- Log CFU/mL of Blood, animals n/N (second line of cell) [3, 5]: 5/12
- Log CFU/Lung [3, 6]: 0.7 ± 1.3 Log CFU/Lung
- Log CFU/mL of Blood [3, 6]: 1.7 ± 2.1 Log CFU/mL
- mice in which S. pneumoniae in the lungs was not eradicated [3, 7]: 25%
- mice in which S. pneumoniae was not eradicated from the blood [3, 7]: 42%
- mice surviving to day 7 ([3]; intraperitoneal injection 6 mg/kg BID, days 1, 2 and 3, n=12): 100%
- mice showing bacterial level in lungs ([4]; 3.8 mg/kg/day, 7 days, FIG. 8): > 90%
- bacterial level in lungs ([4]; 6.0 mg/kg/day, 7 days, FIG. 8): still showed substantial bacterial level
- Log CFU/Lung, animals n/N (second line of cell) ([4]; 3.8 mg/kg/day): 11/12
- Log CFU/mL of Blood, animals n/N (second line of cell) ([4]; 3.8 mg/kg/day): 0/12
- Log CFU/mL of Blood ([4]; 3.8 mg/kg/day): 0 Log CFU/mL
- Log CFU/Lung, animals n/N (second line of cell) ([4]; 6.0 mg/kg/day): 12/12
- Log CFU/mL of Blood, animals n/N (second line of cell) ([4]; 6.0 mg/kg/day): 0/12
- Log CFU/mL of Blood ([4]; 6.0 mg/kg/day): 0 Log CFU/mL
- Log10 CFU/lung, individual mice ([4]; inhalation 3.8 mg/kg for 3 days, day 7, 1 = limit of detection, no colonies detected): 1 Log10 CFU/lung and 2 Log10 CFU/lung
- mice in which S. pneumoniae in the lungs was not eradicated ([4]; inhaled 3.8 mg/kg): 92%
- bacteria in blood ([4]; inhaled 6 mg/kg and 3.8 mg/kg, day 7): no bacteria in their blood
- mice in which S. pneumoniae in the lungs was not eradicated ([4]; inhaled 6 mg/kg): 100%
- Survival ([4]; inhaled, 6 or 3.8 mg/kg/day on days 1, 2 and 3, 12 mice per group, FIG. 4): 100%
